In PMC8862293, “Quercetin mitigates rheumatoid arthritis by inhibiting adenosine deaminase in rats” (Molecular Medicine, 2022):

Biological target: T1, adenosine deaminase (ADA) (Rattus norvegicus, UniProt Q920P6)
T1 construct: native enzyme partially purified from rat joint tissue
T1 sequence (Q920P6 2-352): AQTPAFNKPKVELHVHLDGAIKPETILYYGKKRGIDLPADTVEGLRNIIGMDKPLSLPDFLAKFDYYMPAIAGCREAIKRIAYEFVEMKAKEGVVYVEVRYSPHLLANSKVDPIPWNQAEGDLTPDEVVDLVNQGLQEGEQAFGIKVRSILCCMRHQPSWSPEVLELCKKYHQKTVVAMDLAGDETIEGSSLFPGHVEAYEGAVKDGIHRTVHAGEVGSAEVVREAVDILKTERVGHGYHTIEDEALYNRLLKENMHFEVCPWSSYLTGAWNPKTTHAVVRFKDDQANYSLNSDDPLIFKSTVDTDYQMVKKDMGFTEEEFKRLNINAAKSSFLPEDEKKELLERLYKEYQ
Experiment: Colorimetric (Giusti) ADA activity assay on partially purified rat joint enzyme; Lineweaver-Burk kinetics
Assay type: biochemical

`O=c1c(O)c(-c2ccc(O)c(O)c2)oc2cc(O)cc(O)c12` [quercetin] was tested. Which IC50 did it give?
The IC50 was 170 µM.
